# Test results taken from patent publication US8697742B2, “BCRP/ABCG2 inhibitor” (Kabushiki Kaisha Yakult Honsha, priority 2005, dated 2014).
# Counter-ions that a name gives are not always drawn.
# Test system: A549/SN-38-4 cells
# Experiment: Effect of overcoming SN-38 resistance of BCRP-expressing A549/SN-38-4 cells
# Type: cell-based, human
# Conditions: concentration for 50% reduction of relative SN-38 resistance value (IC50 A549/SN-38-4 / IC50 A549), 48 hours culture with SN-38; for EC50: Homo sapiens, A549, 48 h, read-out: Effect of overcoming resistance EC50
# Experimental: The human lung cancer A549 cells or the A549/SN-38-4 cells were suspended in a Ham's F-12 medium containing 10% FBS, 100 U/mL of penicillin, and 100 μg/mL of streptomycin (10% FBS/Ham's F-12), and the resultant suspension was inoculated into a 96-well microplate (2×10^3 cells/50 μL/well), followed by culturing at 5% CO2 and 37° C. overnight. […] After completion of culturing, the number of viable cells was counted by use of a viable cell counting reagent [TetraColor ONE (trademark), product of Seikagaku Corporation] according to the attached instruction manual. […] The greater the relative resistance value, the higher the level of acquired resistance.
structure (smiles),measurement,setting,value
"COc1ccc(/C(C#N)=C/c2ccc(Br)s2)cc1OC [Compound 2, (Z)-3-(5-bromo-thiophen-2-yl)-2-(3,4-dimethoxy-phenyl)-acrylonitrile]",EC50,,0.13 µg/mL
"COc1ccc(/C(C#N)=C/c2ccc(N(C)CCO)s2)cc1OC [Compound 7, (Z)-2-(3,4-dimethoxy-phenyl)-3-{5-[(2-hydroxy-ethyl)-methyl-amino]-thiophen-2-yl}-acrylonitrile]",EC50,,0.039 µg/mL
"COc1ccc(/C(C#N)=C/c2ccc(N3CCN(C)CC3)s2)cc1OC [Compound 8, (Z)-2-(3,4-dimethoxy-phenyl)-3-[5-(4-methyl-piperazin-1-yl)-thiophen-2-yl]-acrylonitrile]",EC50,,0.045 µg/mL
"COc1ccc(/C(C#N)=C/c2ccc(N3CCN(CCO)CC3)s2)cc1OC [Compound 9, (Z)-2-(3,4-dimethoxy-phenyl)-3-{5-[4-(2-hydroxy-ethyl)-piperazin-1-yl]-thiophen-2-yl}-acrylonitrile]",EC50,,0.046 µg/mL
"COc1ccc(/C(C#N)=C/c2ccc(N(C)CCN(C)C)s2)cc1OC [Compound 10, (Z)-2-(3,4-dimethoxy-phenyl)-3-{5-[(2-dimethylamino-ethyl)-methyl-amino]-thiophen-2-yl}-acrylonitrile]",EC50,,0.12 µg/mL
"COc1ccc(/C(C#N)=C/c2ccc(N3CCCCC3)s2)cc1OC [Compound 11, (Z)-2-(3,4-dimethoxy-phenyl)-3-(5-piperidin-1-yl-thiophen-2-yl)-acrylonitrile hydrochloride]",Effect of overcoming resistance EC50,hydrochloride,0.049 µg/mL
"COc1ccc(/C(C#N)=C/c2ccc(N(C)CCN(C)C)s2)cc1OC [Compound 15, (Z)-2-(3,4-dimethoxy-phenyl)-3-{5-[(2-dimethylamino-ethyl)-methyl-amino]-thiophen-2-yl}-acrylonitrile hydrochloride]",Effect of overcoming resistance EC50,hydrochloride,0.2 µg/mL
"COc1ccc(/C(C#N)=C/c2ccc(-c3cccc(N)c3)o2)cc1OC [Compound 22, (Z)-3-[5-(3-amino-phenyl)-furan-2-yl]-2-(3,4-dimethoxy-phenyl)-acrylonitrile]",Effect of overcoming resistance EC50,,0.013 µg/mL
"COc1ccc(/C(C#N)=C/c2ccc(N3CCCCC3)o2)cc1OC [Compound 24, (Z)-2-(3,4-dimethoxy-phenyl)-3-(5-piperidin-1-yl-furan-2-yl)-acrylonitrile]",EC50,,0.034 µg/mL
"COc1ccc(/C(C#N)=C/c2ccc(N3CCN(C)CC3)o2)cc1OC [Compound 29, (Z)-2-(3,4-dimethoxy-phenyl)-3-[5-(4-methyl-piperazin-1-yl)-furan-2-yl]-acrylonitrile hydrochloride]",Effect of overcoming resistance EC50,hydrochloride,0.42 µg/mL
"COc1ccc(/C=C(\C#N)c2ccc(OC)c(OC)c2)cn1 [Compound 35, (Z)-2-(3,4-dimethoxy-phenyl)-3-(6-methoxy-pyridin-3-yl)-acrylonitrile]",EC50,,0.19 µg/mL
"COc1ccc(/C(C#N)=C/c2cccnc2)cc1OC [Compound 36, (Z)-2-(3,4-dimethoxy-phenyl)-3-pyridin-3-yl-acrylonitrile hydrochloride]",Effect of overcoming resistance EC50,hydrochloride,0.12 µg/mL
"COc1ccc(/C=C(\C#N)c2ccc(OC)c(OC)c2)cn1 [Compound 37, (Z)-2-(3,4-dimethoxy-phenyl)-3-(6-methoxy-pyridin-3-yl)-acrylonitrile hydrochloride]",Effect of overcoming resistance EC50,hydrochloride,0.12 µg/mL
"COc1ccc(/C=C(\C#N)c2ccccn2)cc1OC [Compound 47, (Z)-3-(3,4-dimethoxy-phenyl)-2-pyridin-2-yl-acrylonitrile hydrochloride]",Effect of overcoming resistance EC50,hydrochloride,0.03 µg/mL
"COc1ccc(/C(C#N)=C/c2ccc(N3CCN(CCO)CC3)o2)cc1OC [Compound 50, (Z)-2-(3,4-dimethoxy-phenyl)-3-{5-[4-(2-hydroxy-ethyl)-piperazin-1-yl]-furan-2-yl}-acrylonitrile hydrochloride]",Effect of overcoming resistance EC50,hydrochloride,0.11 µg/mL
"COc1ccc(/C(C#N)=C/c2ccc(N3CCC(OC(=O)CCC(=O)O)CC3)o2)cc1OC [Compound 51, mono-(1-{5-[(Z)-2-cyano-2-(3,4-dimethoxy-phenyl)-vinyl]-furan-2-yl}-piperidin-4-yl)succinate]",Effect of overcoming resistance EC50,,0.51 µg/mL
